Active and inactive are the calls of the source.
Experiments:
Type in all cases: functional, cell-based
HCT-116 [1] = experiment: Antimigratory activity against human HCT116 cells at 50 uM after 72 hrs
HCT-116 [2] = experiment: Cytotoxicity against human HCT116 cells at 50 uM after 72 hrs
LNCaP [3] = experiment: Antimigratory activity against human LNCAP cells at 50 uM after 72 hrs
LNCaP [4] = experiment: Cytotoxicity against human LNCAP cells at 50 uM after 72 hrs

Measured: Activity

O=C(CCCCCCC(=O)Nc1ccccc1)NO
active: all assays above
